Data on nine compounds can be found in patent US9957264B2 (Merck Sharp & Dohme Corp., priority 2013, dated 2018).

pIC50: −log10 of the molar value.

Broadly, the pIC50 is the IC50 on a negative log10 scale, so that one unit is a factor of ten.

Assay [1] concerns the target JAK1 (recombinant purified GST-tagged catalytic domain) (Homo sapiens (Human), UniProt P23458). The assay is described as follows: Jak Biochemical HTRF Assay (JAK1). The note with it: [ATP] 31.8 μM. Summed up:
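GST-tagged human catalytic domains of JAK1 or JAK2 phosphorylated a biotinylated peptide substrate for 120 min at room temperature after ATP addition. Reaction quenched with EDTA stop buffer containing streptavidin-Dylight 650 and Eu-pY20 antibody; HTRF 665/615 nm ratio normalized to untreated controls, IC50 from 4-parameter fit.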

The target in assay [2] is JAK2 (recombinant purified GST-tagged catalytic domain) (Homo sapiens (Human), UniProt O60674). In words: Jak Biochemical HTRF Assay (JAK2). The note with it: [ATP] 8.5 μM. (Time-resolved FRET reads energy transfer from a long-lived donor to a nearby acceptor.)
Sequence of JAK2 (recombinant purified GST-tagged catalytic domain) (O60674 849-1124): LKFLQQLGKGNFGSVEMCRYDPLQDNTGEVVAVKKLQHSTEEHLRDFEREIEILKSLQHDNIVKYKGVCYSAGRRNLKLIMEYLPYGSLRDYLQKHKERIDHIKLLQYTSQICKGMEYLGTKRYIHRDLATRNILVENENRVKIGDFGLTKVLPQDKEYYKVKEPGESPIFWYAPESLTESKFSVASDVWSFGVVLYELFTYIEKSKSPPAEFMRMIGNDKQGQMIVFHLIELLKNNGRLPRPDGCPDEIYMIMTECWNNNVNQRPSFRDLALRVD

Sequence of JAK1 (recombinant purified GST-tagged catalytic domain) (P23458 875-1153): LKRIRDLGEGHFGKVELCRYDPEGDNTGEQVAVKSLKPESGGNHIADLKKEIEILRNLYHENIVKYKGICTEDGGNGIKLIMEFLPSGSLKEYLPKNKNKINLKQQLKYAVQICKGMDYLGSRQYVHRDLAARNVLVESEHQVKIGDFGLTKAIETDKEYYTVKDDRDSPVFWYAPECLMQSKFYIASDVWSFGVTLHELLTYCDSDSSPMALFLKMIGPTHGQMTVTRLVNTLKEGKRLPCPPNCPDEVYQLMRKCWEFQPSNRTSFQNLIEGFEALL

Consider `CC(C)NC(C)(C)c1ccc(Nc2nn([C@@]3(CC#N)CCCC[C@H]3F)c3cc[nH]c(=O)c23)cc1` [Example 5-175, [(1R,2R)-2-fluoro-1-{3-[(4-{1-methyl-1-[(1-methylethyl)amino]ethyl}phenyl)amino]-4-oxo-4,5-dihydro-1H-pyrazolo[4,3-c]pyridin-1-yl}cyclohexyl]acetonitrile], for which the figures for the pIC50 in assay [1] and in assay [2] were 10.05 and 10.22, respectively.

For the compound `CN(C)S(=O)(=O)c1ccc(Nc2nn(C3(CC#N)CCN(C(=O)CCC4CC4)CC3)c3cc[nH]c(=O)c23)cc1` [Example 9-11, 4-({1-[4-(cyanomethyl)-1-(3-cyclopropylpropanoyl)piperidin-4-yl]-4-oxo-4,5-dihydro-1H-pyrazolo[4,3-c]pyridin-3-yl}amino)-N,N-dimethylbenzenesulfonamide], the results for the negative logarithm of the IC50 (pIC50) in assay [1] and in assay [2] were 9.85 and 8.94, respectively.

On to `CN(C)S(=O)(=O)c1ccc(Nc2nn(C3(CC#N)CCN(C(=O)CC(C)(C)C)CC3)c3cc[nH]c(=O)c23)cc1` [Example 9-23, 4-({1-[4-(cyanomethyl)-1-(3,3-dimethylbutanoyl)piperidin-4-yl]-4-oxo-4,5-dihydro-1H-pyrazolo[4,3-c]pyridin-3-yl}amino)-N,N-dimethylbenzenesulfonamide], for which the pIC50 in assay [1] was 9.85; in assay [2] it was 8.88.

`CCNc1nn(C2(CC#N)CN(C(=O)OC(C)(C)C)C2)c2cc[nH]c(=O)c12` [Example 2-4, tert-butyl 3-(cyanomethyl)-3-[3-(ethylamino)-4-oxo-4,5-dihydro-1H-pyrazolo [4,3-c]pyridin-1-yl] azetidine-1-carboxylate]: the pIC50 was 6.68 in assay [1] and less than 5.83 in assay [2].

In the case of `CC(C)(C)OC(=O)c1ccc(Nc2nn(C3(CC#N)CCCC3)c3cc[nH]c(=O)c23)cc1` [Example 5-127, tert-butyl 4-((1-(1-(cyanomethyl)cyclopentyl)-4-oxo-4,5-dihydro-1H-pyrazolo[4,3-c]pyidin-3-yl)amino)benzoate], the negative-log IC50 (pIC50) in assay [1] is 8.32; in assay [2], 7.52.

`CN(C)S(=O)(=O)c1ccc(Nc2nn(C3(CC#N)CCN(C(=O)Oc4ccc(F)cc4)CC3)c3cc[nH]c(=O)c23)cc1` [Example 10-3, 4-fluorophenyl 4-(cyanomethyl)-4-(3-((4-(N,N-dimethylsulfamoyl)phenyl)amino)-4-oxo-4,5-dihydro-1H-pyrazolo[4,3-c]pyridin-1-yl)piperidine-1-carboxylate]: the figures for the negative-log IC50 (pIC50) in assay [1] and in assay [2] were 9.57 and 9.01, respectively.

In the case of `CC(C)(C)OC(=O)N1CC(CC#N)(n2nc(Nc3ccc(S(=O)(=O)C(F)(F)F)cc3)c3c(=O)[nH]ccc32)C1` [Example 5-47, tert-butyl 3-(cyanomethyl)-3-[4-oxo-3-({4-[(trifluoromethyl)sulfonyl]phenyl}amino)-4,5-dihydro-1H-pyrazolo[4,3-c]pyridin-1-yl]azetidine-1-carboxylate], the figures for the negative-log IC50 (pIC50) in assay [1] and in assay [2] were 8.14 and 6.97, respectively.

As to `CC(C)(C)OC(=O)[C@@H]1CC[C@@](CC#N)(n2nc(Nc3ccc4c(c3)CN(CC(F)(F)F)C4=O)c3c(=O)[nH]ccc32)CO1` [Example 5-95, (2S,5S)-tert-butyl 5-(cyanomethyl)-5-(4-oxo-3-((1-oxo-2-(2,2,2-trifluoroethyl)isoindolin-5-yl)amino)-4,5-dihydro-1H-pyrazolo[4,3-c]pyridin-1-yl)tetrahydro-2H-pyran-2-carboxylate], the pIC50 was 10.15 in assay [1] and 9.70 in assay [2].

Consider `CC(F)(F)C(=O)N1CCC(CC#N)(n2nc(Nc3ccc(S(=O)(=O)C(C)(C)C)cc3)c3c(=O)[nH]ccc32)CC1` [Example 5-59, 2-(4-(3-((4-(tert-butylsulfonyl)phenyl)amino)-4-oxo-4,5-dihydro-1H-pyrazolo[4,3-c]pyridin-1-yl)-1-(2,2-difluoro-propanoyl)piperidin-4-yl)acetonitrile], for which the values for the pIC50 in assay [1] and in assay [2] were 10.00 and 9.82, respectively.
